We go through 39 molecules from patent US10344017B2, “Pyrrolcarboxamide derivatives for the inhibition of ERK5” (CANCER RESEARCH TECHNOLOGY LIMITED, priority 2014, dated 2019).

The experiment deals with T1, ERK5 (Homo sapiens, UniProt Q13164).
T1 construct: made in house
The experiment in a line: ERK5 IMAP assay (fluorescence polarisation). To be noted: average (e.g. geometric mean) where more than one data point; read-out: ERK5 IC50. Format: biochemical.

T1 sequence (Q13164 whole entry): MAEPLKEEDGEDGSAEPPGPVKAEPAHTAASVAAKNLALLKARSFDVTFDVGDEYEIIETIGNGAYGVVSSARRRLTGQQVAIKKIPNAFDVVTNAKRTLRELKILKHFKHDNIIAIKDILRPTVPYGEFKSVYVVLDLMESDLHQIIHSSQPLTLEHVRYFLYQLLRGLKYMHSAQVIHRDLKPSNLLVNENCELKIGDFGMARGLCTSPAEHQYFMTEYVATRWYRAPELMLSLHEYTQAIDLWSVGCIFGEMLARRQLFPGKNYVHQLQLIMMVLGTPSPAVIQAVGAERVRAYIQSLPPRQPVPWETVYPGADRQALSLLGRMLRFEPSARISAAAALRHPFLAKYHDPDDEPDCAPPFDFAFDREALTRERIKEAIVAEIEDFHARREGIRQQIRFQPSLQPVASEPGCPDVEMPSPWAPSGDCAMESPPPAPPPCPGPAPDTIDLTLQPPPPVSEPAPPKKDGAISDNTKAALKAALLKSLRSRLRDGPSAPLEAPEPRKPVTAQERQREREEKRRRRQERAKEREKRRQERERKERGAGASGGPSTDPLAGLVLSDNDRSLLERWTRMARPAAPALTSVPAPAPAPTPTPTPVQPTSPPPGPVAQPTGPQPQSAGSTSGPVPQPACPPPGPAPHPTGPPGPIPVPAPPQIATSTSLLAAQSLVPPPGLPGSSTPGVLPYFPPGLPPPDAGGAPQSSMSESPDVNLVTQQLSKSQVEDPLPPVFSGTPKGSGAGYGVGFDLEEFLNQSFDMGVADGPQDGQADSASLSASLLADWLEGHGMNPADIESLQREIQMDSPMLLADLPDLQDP

For `CN1CCC(NC(=O)c2cc(C(=O)c3c(F)ccc(F)c3F)c[nH]2)CC1` [Example 209, N-(1-Methylpipendin-4-yl)-4-(2,3,6-trifluorobenzoyl)-1H-pyrrole-2-carboxamide], the IC50 was 569 nM.

As to `O=C(Nc1cccnc1)c1cc(C(=O)c2c(F)ccc(Cl)c2F)c[nH]1` [Example 210, 4-(3-Chloro-2,6-difluorobenzoyl)-N-(pyridin-3-yl)-1H-pyrrole-2-carboxamide], the IC50 amounted to 291 nM.

As for `O=C(Nc1cncnc1)c1cc(C(=O)c2c(F)ccc(Cl)c2F)c[nH]1` [Example 211, 4-(3-Chloro-2,6-difluorobenzoyl)-N-(pyrimidin-5-yl)-1H-pyrrole-2-carboxamide], the IC50 was determined as 226 nM.

`O=C(NC1CCNCC1)c1cc(C(=O)c2c(F)ccc(Cl)c2F)c[nH]1` [Example 212, 4-(3-Chloro-2,6-difluorobenzoyl)-N-(piperidin-4-yl)-1H-pyrrole-2-carboxamide]: the IC50 stood at 292 nM.

In the case of `O=C(Nc1cccnc1)c1cc(C(=O)c2c(F)ccc(F)c2Cl)c[nH]1` [Example 214, 4-(2-Chloro-3,6-difluorobenzoyl)-N-(pyridin-3-yl)-1H-pyrrole-2-carboxamide], the IC50 turned out to be 1010 nM.

For the molecule `O=C(NC1CCNCC1)c1cc(C(=O)c2c(F)ccc(F)c2Cl)c[nH]1` [Example 215, 4-(2-Chloro-3,6-difluorobenzoyl)-N-(piperidin-4-yl)-1H-pyrrole-2-carboxamide], the half-maximal inhibitory concentration (IC50) worked out at 694 nM.

Regarding `CN1CCC(NC(=O)c2cc(C(=O)c3c(F)ccc(F)c3Cl)c[nH]2)CC1` [Example 216, 4-(2-Chloro-3,6-difluorobenzoyl)-N-(1-methylpiperidin-4-yl)-1H-pyrrole-2-carboxamide], the IC50 was determined as 636 nM.

Take `Cc1ccc(F)c(C(=O)c2c[nH]c(C(=O)Nc3cccnc3)c2)c1F` [Example 217, 4-(2.6-Difluoro-3-methylbenzoyl)-N-(pyridin-3-yl)-1H-pyrrole-2-carboxamide]: the IC50 came to 660 nM.

`Cc1ccc(F)c(C(=O)c2c[nH]c(C(=O)Nc3cncnc3)c2)c1F` [Example 218, 4-(2,6-Difluoro-3-methylbenzoyl)-N-(pyrimidin-5-yl)-1H-pyrrole-2-carboxamide]: the IC50 was found to be 779 nM.

Take `Cc1ccc(F)c(C(=O)c2c[nH]c(C(=O)NC3CCNCC3)c2)c1F` [Example 219, 4-(2,6-Difluoro-3-methylbenzoyl)-N-(piperidin-4-yl)-1H-pyrrole-2-carboxamide]: the IC50 is 628 nM.

`Cc1ccc(F)c(C(=O)c2c[nH]c(C(=O)NC3CCN(C)CC3)c2)c1F` [Example 220, 4-(2,6-Difluoro-3-methylbenzoyl)-N-(1-methylpiperidin-4-yl)-1H-pyrrole-2-carboxamide]: the IC50 was 399 nM.

For the molecule `O=C(Nc1cccnc1)c1cc(C(=O)c2c(Cl)ccc(F)c2F)c[nH]1` [Example 221, 4-(6-Chloro-2,3-difluorobenzoyl)-N-(pyridin-3-yl)-1H-pyrrole-2-carboxamide], the IC50 worked out at 713 nM.

On to `O=C(Nc1cncnc1)c1cc(C(=O)c2c(Cl)ccc(F)c2F)c[nH]1` [Example 222, 4-(6-Chloro-2,3-difluorobenzoyl)-N-(pyrimidin-5-yl)-1H-pyrrole-2-carboxamide], for which the IC50 was 554 nM.

Turning to `CN1CCC(NC(=O)c2cc(C(=O)c3c(Cl)ccc(F)c3F)c[nH]2)CC1` [Example 223, 4-(6-Chloro-2,3-difluorobenzoyl)-N-(1-methylpiperidin-4-yl)-1H-pyrrole-2-carboxamide], the IC50 is 200 nM.

For the molecule `O=C(NC1CCNCC1)c1cc(C(=O)c2c(Cl)ccc(F)c2F)c[nH]1` [Example 224, 4-(6-Chloro-2,3-difluorobenzoyl)-N-(piperidin-4-yl)-1H-pyrrole-2-carboxamide], the IC50 came to 155 nM.

For the molecule `O=C(NC1CCNCC1)c1cc(C(=O)c2cc(F)ccc2F)c[nH]1` [Example 226, 4-(2,5-Difluorobenzoyl)-N-(piperidin-4-yl)-1H-pyrrole-2-carboxamide], the IC50 came out at 8560 nM.

Regarding `CN1CCC(NC(=O)c2cc(C(=O)c3cc(F)ccc3F)c[nH]2)CC1` [Example 227, 4-(2,5-Difluorobenzoyl)-N-(1-methylpiperidin-4-yl)-1H-pyrrole-2-carboxamide], the IC50 came to 6160 nM.

As for `O=C(Nc1cccnc1)c1cc(C(=O)c2cc(Cl)ccc2F)c[nH]1` [Example 228, 4-(5-Chloro-2-fluorobenzoyl)-N-(pyridin-3-yl)-1H-pyrrole-2-carboxamide], the IC50 amounted to 2380 nM.

Take `O=C(Nc1cncnc1)c1cc(C(=O)c2cc(Cl)ccc2F)c[nH]1` [Example 229, 4-(5-Chloro-2-fluorobenzoyl)-N-(pyrimidin-5-yl)-1H-pyrrole-2-carboxamide]: the IC50 was determined as 2060 nM.

Take `O=C(NC1CCNCC1)c1cc(C(=O)c2cc(Cl)ccc2F)c[nH]1` [Example 230, 4-(5-Chloro-2-fluorobenzoyl)-N-(piperidin-4-yl)-1H-pyrrole-2-carboxamide]: the IC50 was 1660 nM.

`CN1CCC(NC(=O)c2cc(C(=O)c3cc(Cl)ccc3F)c[nH]2)CC1` [Example 231, 4-(5-Chloro-2-fluorobenzoyl)-N-(1-methylpiperidin-4-yl)-1H-pyrrole-2-carboxamide]: the IC50 turned out to be 1940 nM.

As to `Cc1ccc(F)c(C(=O)c2c[nH]c(C(=O)Nc3cccnc3)c2)c1` [Example 232, 4-(2-Fluoro-5-methylbenzoyl)-N-(pyridin-3-yl)-1H-pyrrole-2-carboxamide], the IC50 stood at 4050 nM.

With `Cc1ccc(F)c(C(=O)c2c[nH]c(C(=O)Nc3cncnc3)c2)c1` [Example 233, 4-(2-Fluoro-5-methylbenzoyl)-N-(pyrimidin-5-yl)-1H-pyrrole-2-carboxamide], the IC50 is 5210 nM.

Take `Cc1ccc(F)c(C(=O)c2c[nH]c(C(=O)NC3CCN(C)CC3)c2)c1` [Example 234, 4-(2-Fluoro-5-methylbenzoyl)-N-(1-methylpiperidin-4-yl)-1H-pyrrole-2-carboxamide]: the IC50 stood at 4370 nM.

Consider `O=C(Nc1cnn(CCO)c1)c1cc(C(=O)c2c(Cl)ccc(Cl)c2F)c[nH]1` [Example 235, 4-(3,6-Dichloro-2-fluorobenzo)-N-(1-(2-hydroxyethyl)-1H-pyrazol-4-yl)-1H-pyrrole-2-carboxamide], for which the IC50 was 61.2 nM.

In the case of `O=C(Nc1cnn(C2CCOCC2)c1)c1cc(C(=O)c2c(Cl)ccc(Cl)c2F)c[nH]1` [Example 237, 4-(3,6-Dichloro-2-fluorobenzoyl)-N-(1-(tetrahydro-2H-pyran-4-yl)-1H-pyrazol-4-yl)-1H-pyrrole-2-carboxamide], the half-maximal inhibitory concentration (IC50) came out at 148 nM.

On to `CS(=O)(=O)CCn1cc(NC(=O)c2cc(C(=O)c3c(Cl)ccc(Cl)c3F)c[nH]2)cn1` [Example 238, 4-(3,6-Dichloro-2-fluorobenzoyl)-N-(1-(2-(methylsulfonyl)ethyl)-1H-pyrazol-4-yl)-1H-pyrrole-2-carboxamide], for which the IC50 is 119 nM.

Consider `O=C(Nc1cnn(C2COC2)c1)c1cc(C(=O)c2c(Cl)ccc(Cl)c2F)c[nH]1` [Example 239, 4-(3,6-Dichloro-2-fluorobenzoyl)-N-(1-(oxetan-3-yl)-1H-pyrazol-4-yl)-1H-pyrrole-2-carboxamide], for which the IC50 was determined as 86.6 nM.

As for `O=C(Nc1cnn(C2CCOC2)c1)c1cc(C(=O)c2c(Cl)ccc(Cl)c2F)c[nH]1` (stereo not drawn) [Example 240, 4-(3,6-Dichloro-2-fluorobenzoyl)-N-(1-(tetrahydrofuran-3-yl)-1H-pyrazol-4-yl)-1H-pyrrole-2-carboxamide], the IC50 worked out at 127 nM.

On to `O=C(Nc1cnc(CN2CCOCC2)nc1)c1cc(C(=O)c2c(Cl)ccc(Cl)c2F)c[nH]1` [Example 242, 4-(3,6-Dichloro-2-fluorobenzoyl)-N-(2-(morpholinomethyl)pyrimidin-5-yl)-1H-pyrrole-2-carboxamide], for which the IC50 is 53 nM.

Turning to `COc1ccc(Cl)c(C(=O)c2c[nH]c(C(=O)Nc3cnc(CN4CCOCC4)nc3)c2)c1F` [Example 243, 4-(6-Chloro-2-fluoro-3-methoxybenzoyl)-N-(2-(morpholinomethyl)pyrimidin-5-yl)-1H-pyrrole-2-carboxomide], the IC50 was 129 nM.

For the molecule `COc1ccc(Cl)c(C(=O)c2c[nH]c(C(=O)Nc3cnc(CC4CCN(C)CC4)nc3)c2)c1F` [Example 247, 4-(6-Chloro-2-fluoro-3-methoxybenzoyl)-N-(2-((1-methylpiperidin-4-yl)methyl)pyrimidin-5-yl)-1H-pyrrole-2-carboxamide], the IC50 was 18.1 nM.

`COc1ccc(Cl)c(C(=O)c2c[nH]c(C(=O)Nc3ccc(CN4CCNCC4)nc3)c2)c1F` [Example 251, 4-(6-Chloro-2-fluoro-3-methoxybenzoyl)-N-(6-(piperazin-1-ylmethyl)pyridin-3-yl)-1H-pyrrole-2-carboxamtde]: the IC50 amounted to 7.9 nM.

In the case of `O=C(Nc1cccnc1)c1cc(C(=O)c2c(Cl)ccc(O)c2F)c[nH]1` [Example 254, 4-(6-Chloro-2-fluoro-3-hydroxybenzoyl)-N-(pyridin-3-yl)-1H-pyrrole-2-carboxamide], the IC50 stood at 1190 nM.

For `Cn1cc(NC(=O)c2cc(C(=O)c3c(Cl)ccc(O)c3F)c[nH]2)cn1` [Example 255, 4-(6-Chloro-2-fluoro-3-hydroxybenzoyl)-N-(1-methyl-1H-pyrazol-4-yl)-1H-pyrrole-2-carboxamide], the IC50 stood at 736 nM.

For `CCOc1ccc(Cl)c(C(=O)c2c[nH]c(C(=O)Nc3cccnc3)c2)c1F` [Example 256, 4-(6-Chloro-3-ethoxy-2-fluorobenzoyl)-N-(pyridin-3-yl)-1H-pyrrole-2-carboxamide], the IC50 worked out at 116 nM.

For the molecule `CCOc1ccc(Cl)c(C(=O)c2c[nH]c(C(=O)Nc3cnn(C)c3)c2)c1F` [Example 257, 4-(6-Chloro-3-ethoxy-2-fluorobenzoyl)-N-(1-methyl-1H-pyrazol-yl)-1H-pyrrole-2-carboxamide], the IC50 amounted to 203 nM.

`COCCOc1ccc(Cl)c(C(=O)c2c[nH]c(C(=O)Nc3cccnc3)c2)c1F` [Example 258, 4-(6-Chloro-2-fluoro-3-(2-methoxyelhoxy)benzoyl)-N-(pyridin-3-yl)-1H-pyrrole-2-carboxamide]: the IC50 was found to be 653 nM.

With `O=C(Nc1cccnc1)c1cc(C(=O)c2c(Cl)ccc(OC3CCOC3)c2F)c[nH]1` (stereo not drawn) [Example 259, 4-(6-Chloro-2-fluoro-3-((tetrahydrofuran-3-yl)oxy)benzoyl)-N-(pyridin-3-yl)-1H-pyrrole-2-carboxamide], the IC50 was 483 nM.
